Assay results from patent publication US10221139B2, “Inhibitors of histone demethylases” (Gilead Sciences, Inc., priority 2012, dated 2019).

Tests used:
Assay type in all cases: cell-based
Settings in all cases: 20 hours
[1] = target: T1, JMJD2A (KDM4A) (Homo sapiens, UniProt O75164); assay: Immunofluorescence assay in U2OS cells transfected with pCMVHA JMJD2A (H3K9me3 mark)
T1 construct: Full length; host or cells: U2OS
T1 sequence (O75164 1-1064): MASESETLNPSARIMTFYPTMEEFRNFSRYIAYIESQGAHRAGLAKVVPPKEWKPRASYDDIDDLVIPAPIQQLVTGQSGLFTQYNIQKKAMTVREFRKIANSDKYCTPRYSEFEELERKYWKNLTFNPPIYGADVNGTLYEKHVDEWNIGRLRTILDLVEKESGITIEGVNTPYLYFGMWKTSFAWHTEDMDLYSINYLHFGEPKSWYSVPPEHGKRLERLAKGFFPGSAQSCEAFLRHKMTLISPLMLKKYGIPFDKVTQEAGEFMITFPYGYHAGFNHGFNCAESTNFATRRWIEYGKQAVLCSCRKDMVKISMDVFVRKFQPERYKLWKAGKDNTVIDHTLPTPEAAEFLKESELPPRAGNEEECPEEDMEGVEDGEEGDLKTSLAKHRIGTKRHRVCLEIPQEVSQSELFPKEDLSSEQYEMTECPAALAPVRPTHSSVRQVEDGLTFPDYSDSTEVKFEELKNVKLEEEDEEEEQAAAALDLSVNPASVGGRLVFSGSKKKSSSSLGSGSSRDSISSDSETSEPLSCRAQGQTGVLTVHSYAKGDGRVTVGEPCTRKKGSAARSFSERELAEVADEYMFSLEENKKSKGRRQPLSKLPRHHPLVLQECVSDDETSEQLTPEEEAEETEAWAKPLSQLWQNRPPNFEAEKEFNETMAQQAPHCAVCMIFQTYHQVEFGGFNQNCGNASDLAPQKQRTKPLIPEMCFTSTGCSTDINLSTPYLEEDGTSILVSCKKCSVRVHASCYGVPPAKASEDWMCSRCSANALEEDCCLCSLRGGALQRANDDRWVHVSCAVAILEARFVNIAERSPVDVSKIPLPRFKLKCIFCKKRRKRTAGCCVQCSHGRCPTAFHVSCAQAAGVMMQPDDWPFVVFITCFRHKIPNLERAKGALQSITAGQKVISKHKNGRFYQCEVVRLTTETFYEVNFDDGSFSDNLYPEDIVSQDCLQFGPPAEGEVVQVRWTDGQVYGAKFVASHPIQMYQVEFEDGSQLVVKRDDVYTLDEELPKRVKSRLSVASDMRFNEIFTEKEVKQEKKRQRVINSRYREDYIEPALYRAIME
Experimental: (§1) U2OS cells were seeded 24 hours before transfection. Transfection was performed with Fugene HD transfection reagent as recommended by the manufacturer. 6 hours after transfection, the cells were harvested and seeded into multi well plates into media containing compound. The media used was DMEM containing 5% FBS and pen/strep. 20 hours after incubation of cells with compounds, the cells were washed once in PBS, harvested by fixation with formaldehyde 4% aqueous solution, and washed 2 times in PBS. Subsequently, the cells were permeabilized in PBS with 0.2% Triton X-100 for 10 min at room temperature. Blocking was performed in PBS with 0.2% Triton X-100 and 5% FBS for 45 min at room temperature. The cells were incubated with primary antibodies diluted 1 μg/ml in blocking solution over night at 4° C. The primary antibodies used in the assays were HA.11 (Covance, MMS-101P) and the antibody detecting the mark specified in the Table 6 below. After incubation with primary antibodies, the cells were washed 3 times with PBS, incubated with secondary antibodies diluted 1:1000 (Alexa fluor 594 goat anti rabbit IgG, Invitrogen, A11012; Alexa flour 488 donkey anti mouse IgG, Invitrogen, A21202) and Hoechst, 20 μg/ml (Sigma, 33342) in blocking solution, and washed again 3 times with PBS. Finally, PBS was added and high throughput imaging and analysis were performed by an IN Cell Analyzer 1000 (GE Healthcare). The robot software analyzed individual cells and divided these into HA^+ (transfected cells) and HA^− (non-transfected cells). The IC50 values in Table 7 below were based on an average measure of the staining of the mark specified in the Table 6 below in the transfected cells.

[2] = target: T2, GASC1 (KDM4C) (Homo sapiens, UniProt Q9H3R0); assay: Immunofluorescence assay in U2OS cells transfected with pCMVHA JMJD2C (H3K9me3 mark)
T2 construct: Full length; host or cells: U2OS
T2 sequence (Q9H3R0 1-1056): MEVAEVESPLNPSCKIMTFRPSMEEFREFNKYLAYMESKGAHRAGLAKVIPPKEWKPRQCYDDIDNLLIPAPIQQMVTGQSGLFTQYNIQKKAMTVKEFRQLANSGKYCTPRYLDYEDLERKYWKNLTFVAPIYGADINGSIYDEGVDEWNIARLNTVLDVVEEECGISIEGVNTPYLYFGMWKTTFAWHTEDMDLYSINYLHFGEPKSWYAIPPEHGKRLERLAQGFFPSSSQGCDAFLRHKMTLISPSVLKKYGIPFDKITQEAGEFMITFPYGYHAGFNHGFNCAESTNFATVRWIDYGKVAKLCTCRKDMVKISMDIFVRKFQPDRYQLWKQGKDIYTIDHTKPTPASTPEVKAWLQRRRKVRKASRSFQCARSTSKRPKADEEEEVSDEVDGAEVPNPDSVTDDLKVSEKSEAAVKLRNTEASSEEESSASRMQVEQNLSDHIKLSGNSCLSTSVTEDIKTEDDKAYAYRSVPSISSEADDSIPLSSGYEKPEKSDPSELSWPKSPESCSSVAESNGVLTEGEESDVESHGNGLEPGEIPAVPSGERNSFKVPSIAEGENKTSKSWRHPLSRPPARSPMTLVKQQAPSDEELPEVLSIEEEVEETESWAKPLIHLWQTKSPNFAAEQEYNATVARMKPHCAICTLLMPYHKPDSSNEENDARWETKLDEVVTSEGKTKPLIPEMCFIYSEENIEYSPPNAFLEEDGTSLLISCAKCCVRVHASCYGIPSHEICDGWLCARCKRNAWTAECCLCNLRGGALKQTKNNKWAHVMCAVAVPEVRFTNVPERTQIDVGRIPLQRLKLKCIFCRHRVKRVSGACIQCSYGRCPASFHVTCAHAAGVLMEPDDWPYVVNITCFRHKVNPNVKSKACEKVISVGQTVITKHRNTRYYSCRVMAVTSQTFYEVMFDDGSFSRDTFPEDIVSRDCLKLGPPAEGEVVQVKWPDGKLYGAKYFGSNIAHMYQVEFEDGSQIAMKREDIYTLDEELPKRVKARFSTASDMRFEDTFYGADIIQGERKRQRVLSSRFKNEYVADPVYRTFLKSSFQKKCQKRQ
Experimental: as §1

[3] = target: T3, PLU1 (KDM5B) (Homo sapiens, UniProt Q9UGL1); assay: Immunofluorescence assay in U2OS cells transfected with pCMVHA PLU1 (H3K4me2 mark)
T3 construct: (1-752); host or cells: U2OS
T3 sequence (Q9UGL1 1-752): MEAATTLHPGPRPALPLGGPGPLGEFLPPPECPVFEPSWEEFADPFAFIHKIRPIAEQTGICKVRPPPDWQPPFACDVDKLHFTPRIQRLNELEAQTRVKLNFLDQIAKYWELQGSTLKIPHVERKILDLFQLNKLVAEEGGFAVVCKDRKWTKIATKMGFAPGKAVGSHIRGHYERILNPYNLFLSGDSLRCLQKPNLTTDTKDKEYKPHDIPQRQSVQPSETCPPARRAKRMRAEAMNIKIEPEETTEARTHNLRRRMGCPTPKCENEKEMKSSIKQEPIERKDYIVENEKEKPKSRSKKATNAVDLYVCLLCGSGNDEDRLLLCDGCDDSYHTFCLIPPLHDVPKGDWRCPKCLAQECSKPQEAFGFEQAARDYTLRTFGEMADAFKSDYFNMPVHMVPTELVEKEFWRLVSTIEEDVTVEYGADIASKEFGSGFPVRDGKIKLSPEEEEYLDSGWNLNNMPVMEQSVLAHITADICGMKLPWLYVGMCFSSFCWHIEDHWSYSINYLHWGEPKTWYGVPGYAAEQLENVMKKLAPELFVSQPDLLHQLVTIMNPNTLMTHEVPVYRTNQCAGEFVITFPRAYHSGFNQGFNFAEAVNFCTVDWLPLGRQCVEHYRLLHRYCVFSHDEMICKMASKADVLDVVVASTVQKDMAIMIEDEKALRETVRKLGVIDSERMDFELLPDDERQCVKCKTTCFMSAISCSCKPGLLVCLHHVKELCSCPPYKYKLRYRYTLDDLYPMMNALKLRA
Procedure, shortened: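 U2OS cells transiently expressing HA-tagged demethylase, exposed to compound 6 h post-transfection for 20 h in DMEM/5% FBS. Cells fixed, then immunostained for HA and the histone methyl mark and imaged by high-content analysis. IC50 from mean mark staining in HA-positive transfected cells.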

| IC50 [1] [µM] | IC50 [2] [µM] | IC50 [3] [µM] | SMILES |
| --- | --- | --- | --- |
| 1 to 50 | > 50 | 1 to 50 | CCN(CCN(C)C)C(=O)CNCc1cc(C(=O)O)ccn1 [drawing 328, 2-{[({[2-(dimethylamino)ethyl](ethyl)carbamoyl}methyl)amino]methyl}pyridine-4-carboxylic acid] |
| < 1 |  |  | CCOC(=O)N(C)c1ccc(COC(=O)c2ccnc(CNCCCCN(CC)CC)c2)cc1 [drawing 333, {4-[(ethoxycarbonyl)(methyl)amino]phenyl}methyl 2-({[4-(diethylamino)butyl]amino}methyl)pyridine-4-carboxylate] |
| 1 to 50 |  |  | CCCCCCCCCCCCCCCC(=O)OCC(COC(=O)CCCCCCCCCCCCCCC)OC(=O)c1ccnc(CNCC(=O)N(CC)CCN(C)C)c1 [drawing 334, 2-(2-{[({[2-(dimethylamino)ethyl](ethyl)carbamoyl}methyl)amino]methyl}pyridine-4-carbonyloxy)-3-(hexadecanoyloxy)propyl hexadecanoate] |
